Source: ChEMBL document CHEMBL1201862, “PubChem BioAssay data set” (2004)
Values belong to the compound of their own block, whether it stands above or below them. Active and inactive are the calls of the source.

How the values were obtained:
[1] = molecular target: Cytochrome P450 2C9 (Homo sapiens, UniProt P11712)
[2] = molecular target: Cytochrome P450 2C19 (Homo sapiens, UniProt P33261); assay: Cytochrome panel assay with activity outcomes. Panel member name: p450-cyp2c19 Compounds with AC50 equal or less than 10 uM are considered active; format: functional
[3] = molecular target: Cytochrome P450 3A4 (Homo sapiens, UniProt P08684);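 also: CYP3A4 tested as one member of a cytochrome P450 panel screen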
[4] = molecular target: Cytochrome P450 2D6 (Homo sapiens, UniProt P10635);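 also: CYP2D6 member of a cytochrome P450 panel assay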
[5] = molecular target: T1, Cytochrome P450 1A2 (Homo sapiens, UniProt P05177);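 also: PubChem cytochrome P450 panel assay, CYP1A2 panel member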
T1 sequence (P05177 whole entry): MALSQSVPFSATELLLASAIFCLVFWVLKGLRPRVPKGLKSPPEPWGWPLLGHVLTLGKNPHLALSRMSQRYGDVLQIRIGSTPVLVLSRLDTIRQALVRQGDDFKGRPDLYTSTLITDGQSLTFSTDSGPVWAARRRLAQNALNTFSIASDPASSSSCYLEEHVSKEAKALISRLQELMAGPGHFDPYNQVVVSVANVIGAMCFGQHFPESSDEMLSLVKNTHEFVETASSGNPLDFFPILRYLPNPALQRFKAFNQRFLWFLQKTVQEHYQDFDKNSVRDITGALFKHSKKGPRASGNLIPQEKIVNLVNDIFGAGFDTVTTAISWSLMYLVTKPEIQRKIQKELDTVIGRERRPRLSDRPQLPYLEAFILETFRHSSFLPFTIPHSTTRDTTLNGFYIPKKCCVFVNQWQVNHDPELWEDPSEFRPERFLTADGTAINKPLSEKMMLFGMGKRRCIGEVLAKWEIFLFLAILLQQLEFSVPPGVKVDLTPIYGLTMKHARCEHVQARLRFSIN

[6] = molecular target: T2, Heat shock factor protein 1 (Mus musculus, UniProt P38532); assay: inhibition of MG132-induced HSE-luciferase signal, confirmation, cell-based, NIH3T3, luminescence, dose retest (AID 2382); format: functional;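 also: NIH3T3 fibroblasts with HSF1-driven luciferase reporter stressed by proteasome inhibitor MG132; luminescence from HSF1-driven luciferase expression after 8 hours of MG132 stress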
T2 sequence (P38532 whole entry): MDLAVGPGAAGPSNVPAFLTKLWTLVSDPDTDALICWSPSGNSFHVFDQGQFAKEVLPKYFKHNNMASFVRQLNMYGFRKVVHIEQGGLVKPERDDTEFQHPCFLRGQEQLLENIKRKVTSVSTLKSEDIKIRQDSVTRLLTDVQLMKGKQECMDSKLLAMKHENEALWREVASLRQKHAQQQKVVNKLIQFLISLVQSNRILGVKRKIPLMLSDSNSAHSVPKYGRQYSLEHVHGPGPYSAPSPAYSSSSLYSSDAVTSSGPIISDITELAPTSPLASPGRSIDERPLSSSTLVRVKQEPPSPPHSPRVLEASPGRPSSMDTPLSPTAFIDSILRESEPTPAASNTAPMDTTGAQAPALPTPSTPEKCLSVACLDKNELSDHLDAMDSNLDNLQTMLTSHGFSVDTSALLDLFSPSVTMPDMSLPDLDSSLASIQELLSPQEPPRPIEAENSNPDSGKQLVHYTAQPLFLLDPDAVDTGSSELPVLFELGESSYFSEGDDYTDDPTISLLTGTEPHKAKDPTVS

Sequence of Cytochrome P450 2C9 (P11712 whole entry): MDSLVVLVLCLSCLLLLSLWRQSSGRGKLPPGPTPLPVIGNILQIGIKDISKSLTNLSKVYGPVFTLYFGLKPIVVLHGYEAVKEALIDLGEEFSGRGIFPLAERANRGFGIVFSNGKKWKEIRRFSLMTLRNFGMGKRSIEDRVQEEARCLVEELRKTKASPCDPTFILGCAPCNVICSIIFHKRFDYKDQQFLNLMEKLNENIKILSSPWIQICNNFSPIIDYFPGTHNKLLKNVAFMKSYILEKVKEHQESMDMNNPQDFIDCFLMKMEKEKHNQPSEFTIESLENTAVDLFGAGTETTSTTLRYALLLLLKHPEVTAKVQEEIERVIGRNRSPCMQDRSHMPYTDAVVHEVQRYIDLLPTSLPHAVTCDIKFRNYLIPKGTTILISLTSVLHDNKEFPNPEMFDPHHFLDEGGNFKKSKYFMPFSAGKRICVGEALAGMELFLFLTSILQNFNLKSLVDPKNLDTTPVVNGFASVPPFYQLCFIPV
Sequence of Cytochrome P450 2D6 (P10635 whole entry): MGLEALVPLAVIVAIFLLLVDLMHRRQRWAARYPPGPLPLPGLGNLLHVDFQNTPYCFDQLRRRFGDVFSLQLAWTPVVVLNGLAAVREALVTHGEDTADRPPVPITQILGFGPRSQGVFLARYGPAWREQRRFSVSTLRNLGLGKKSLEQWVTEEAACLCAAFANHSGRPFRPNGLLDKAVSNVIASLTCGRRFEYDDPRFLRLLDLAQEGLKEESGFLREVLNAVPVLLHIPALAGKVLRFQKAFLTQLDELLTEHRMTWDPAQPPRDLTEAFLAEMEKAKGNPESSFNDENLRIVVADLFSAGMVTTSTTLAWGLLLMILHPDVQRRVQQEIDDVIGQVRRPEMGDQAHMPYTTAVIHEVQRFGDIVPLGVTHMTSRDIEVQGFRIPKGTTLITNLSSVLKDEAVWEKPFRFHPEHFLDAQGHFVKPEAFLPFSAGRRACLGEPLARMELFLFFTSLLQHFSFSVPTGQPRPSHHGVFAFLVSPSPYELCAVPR
Sequence of Cytochrome P450 2C19 (P33261 whole entry): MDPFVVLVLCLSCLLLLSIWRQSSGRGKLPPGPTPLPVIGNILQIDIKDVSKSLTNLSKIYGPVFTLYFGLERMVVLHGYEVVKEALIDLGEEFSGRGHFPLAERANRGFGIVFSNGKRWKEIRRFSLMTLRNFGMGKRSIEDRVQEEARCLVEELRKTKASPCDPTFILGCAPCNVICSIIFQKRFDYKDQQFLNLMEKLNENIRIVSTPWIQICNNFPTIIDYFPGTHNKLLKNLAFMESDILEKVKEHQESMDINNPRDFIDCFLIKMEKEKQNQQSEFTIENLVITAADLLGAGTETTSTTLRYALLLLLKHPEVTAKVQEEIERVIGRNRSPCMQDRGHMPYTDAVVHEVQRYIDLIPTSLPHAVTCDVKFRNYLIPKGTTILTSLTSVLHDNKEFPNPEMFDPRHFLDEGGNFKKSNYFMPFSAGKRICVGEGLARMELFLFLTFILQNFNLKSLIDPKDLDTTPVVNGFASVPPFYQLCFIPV
Sequence of Cytochrome P450 3A4 (P08684 whole entry): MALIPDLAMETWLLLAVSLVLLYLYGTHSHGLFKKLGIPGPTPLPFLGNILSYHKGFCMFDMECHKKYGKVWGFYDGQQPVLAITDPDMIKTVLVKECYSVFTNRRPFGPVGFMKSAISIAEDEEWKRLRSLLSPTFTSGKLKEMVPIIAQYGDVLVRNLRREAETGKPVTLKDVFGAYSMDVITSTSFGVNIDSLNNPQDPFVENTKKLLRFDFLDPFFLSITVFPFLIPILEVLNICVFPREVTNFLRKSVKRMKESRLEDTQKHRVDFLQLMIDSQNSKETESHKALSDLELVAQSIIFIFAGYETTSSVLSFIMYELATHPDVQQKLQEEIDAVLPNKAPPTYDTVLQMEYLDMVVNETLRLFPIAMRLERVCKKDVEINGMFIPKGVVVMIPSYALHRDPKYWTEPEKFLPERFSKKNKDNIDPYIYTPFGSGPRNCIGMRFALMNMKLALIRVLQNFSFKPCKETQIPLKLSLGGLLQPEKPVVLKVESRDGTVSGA

SMILES: O=C(N/N=C(\c1ccccc1)c1cccnc1)C(O)(c1ccccc1)c1ccccc1
AC50 [1]: 0.794 µM (inconclusive)

SMILES: [H]/N=C(\N/C(=N/[H])Nc1ccc(Cl)cc1)NC(C)C [PROGUANIL]
AC50 [4]: 10 µM (inconclusive)

SMILES: COc1cccc(-c2ccc3ncnc(NC4CCNCC4)c3c2)c1
AC50 [3]: 31.6 µM (inconclusive)

SMILES: Cc1oc(/C=N/NC(=O)CC2(C)OCCO2)cc1Br
EC50 [6]: > 195 µM (not active)

SMILES: c1cncc(CNc2nc(-c3cccnc3)nc3ccccc23)c1
AC50 [5]: 0.316 µM (active) | AC50 [4]: 20 µM (inconclusive) | AC50 ([2]; read-out: AC50): 39.8 µM (inconclusive)

SMILES: CC(C)(C)N(NC(=O)c1ccccc1)C(=O)c1cccc(C(=O)N(NC(=O)c2ccccc2)C(C)(C)C)c1
AC50 [2]: inconclusive | AC50 [3]: 3.98 µM (inconclusive)

SMILES: O=C(c1csnn1)N1CCC2(CC1)CN(c1cccc(-c3ccccc3)c1)C2
AC50 [4]: 10 µM (inconclusive) | AC50 [3]: 39.8 µM (inconclusive)

SMILES: Cn1cc(/C=N/n2cnc3scc(-c4ccccc4)c3c2=O)c2ccccc21
AC50 [3]: 3.98 µM (inconclusive)

SMILES: O=C(CN1CCN(Cc2ccccc2)CC1)N/N=C\C=C/c1ccco1
EC50 [6]: > 195 µM (not active)

SMILES: COc1ccc(O[C@H]2C=C[C@@H](c3ccccc3)O[C@H]2COC(=O)CC/C(C)=N/OCC[C@@H]2C=C[C@H](OC(C)=O)[C@H](COC(C)=O)O2)cc1
AC50 [4]: 0.794 µM (inconclusive)

SMILES: c1ccc(CN2CCCC3(CCNCC3)C2)cc1
AC50 [4]: 12.6 µM (inconclusive)

SMILES: CCN(Cc1ccccc1)S(=O)(=O)c1ccc(F)cc1
EC50 [6]: > 195 µM (not active)

SMILES: O=C(O)/C=C\C(=O)Nc1ccc2c(c1)-c1ccccc1C2
AC50 [5]: 1 µM (inconclusive) | AC50 [3]: 3.98 µM (inconclusive)

SMILES: COc1cccc(Nc2ncc3nc(CCc4ccccc4)c(=O)n(C4CC4)c3n2)c1
AC50 [5]: 5.01 µM (inconclusive) | AC50 [3]: 10 µM (inconclusive)

SMILES: Clc1ccc(/C=N/c2c(-c3ccc(Cl)cc3)nc3n2CCS3)cc1
AC50 [1]: 10 µM (inconclusive)

SMILES: Cn1cccc1C(=O)N1CCC[C@@]2(CCN(C(=O)Nc3cccc(C#N)c3)C2)C1
AC50 [3]: 25.1 µM (inconclusive)

The remaining lines, values ahead:

AC50 [1]: 35.5 µM (inconclusive)
SMILES: CC(NC(=O)Cn1cnc([N+](=O)[O-])n1)c1ccccc1 (stereo not given)

AC50 [1]: 1 µM (inconclusive)
SMILES: COc1ccc(CNc2nc(-c3c(C)noc3C)nc3ccccc23)c(OC)c1

AC50 ([2]; read-out: AC50): 39.8 µM (inconclusive) | AC50 [3]: 35.5 µM (inconclusive)
SMILES: CCCc1nc2sc3ccccc3c(=O)c2c(=O)n1CCOC

AC50 [4]: 39.8 µM (inconclusive)
SMILES: COC(=O)[C@@]1(Cc2ccc(F)cc2)[C@H]2c3cc(C(=O)N(C)C)n(Cc4ccc(C)o4)c3C[C@H]2CN1C(=O)c1ccccc1

AC50 [5]: 15.8 µM (inconclusive) | AC50 [4]: 15.8 µM (inconclusive) | AC50 ([2]; read-out: AC50): 39.8 µM (inconclusive) | AC50 [3]: 20 µM (inconclusive)
SMILES: COc1ccc(-c2nc3cnc(N4CCNCC4)nc3n(CCc3ccccc3)c2=O)cc1

AC50 [1]: 39.8 µM (inconclusive) | AC50 [4]: 35.5 µM (inconclusive)
SMILES: CCOC(=O)Nc1ccc2c(c1)OCO2

AC50 [5]: 15.8 µM (inconclusive) | AC50 ([2]; read-out: AC50): 22.4 µM (inconclusive) | AC50 [3]: 14.1 µM (inconclusive)
SMILES: Cc1ccc(-c2nc3ccccc3s2)cc1NC(=S)NC(=O)c1ccccc1

AC50 [5]: 28.2 µM (inconclusive) | AC50 [4]: 31.6 µM (inconclusive)
SMILES: O=C(CSc1nnc(COc2ccccc2)n1-c1ccccc1)c1ccccc1

EC50 [6]: > 195 µM (not active)
SMILES: Cc1cc(=O)oc2c(C)c(OC(C)C(=O)NCCCN3CCOCC3)ccc12 (stereo not given)

AC50 ([2]; read-out: AC50): 5.01 µM (inconclusive) | AC50 [3]: 6.31 µM (inconclusive)
SMILES: COc1ccc(/C=N\c2c(O)ccc3ccccc23)cc1OC

AC50 [5]: 12.6 µM (inconclusive) | AC50 [4]: 15.8 µM (inconclusive)
SMILES: C[C@@H](C(=O)NCc1nc2ccccc2[nH]1)[C@@H]1C[C@@]1(C)[C@@H](NC(=O)OCc1ccccc1)c1ccccc1

AC50 [1]: 39.8 µM (inconclusive) | AC50 [4]: 25.1 µM (inconclusive) | AC50 ([2]; read-out: AC50): 39.8 µM (inconclusive)
SMILES: COCCn1c(=O)c(-c2ccc(OC)cc2)nc2cnc(OC)nc21

AC50 [4]: 3.16 µM (inconclusive)
SMILES: CCN(CC)C[C@@H](O)c1ccc2ccc3ccccc3c2c1

AC50 [1]: 0.0282 µM (inconclusive) | AC50 [5]: 31.6 µM (inconclusive) | AC50 ([2]; read-out: AC50): 39.8 µM (inconclusive)
SMILES: Cc1ccc(C(=O)CSc2nc(C)cc(=O)[nH]2)cc1
